The results in this text go back to PubChem BioAssay (NCI).

Molecules are shown by their SMILES.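 Briefly, cells in 96-well plates were exposed to five compound concentrations for 48 h, and endpoints were estimated by linear interpolation. GI50 marks 50% less growth. TGI is the concentration that stops growth completely.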

Some test systems named below: HT29 colon; MDA-MB-231 breast; OVCAR-8 ovarian; HL-60(TB) leukemia; MDA-MB-435; SR leukemia; PC-3 prostate; A549 NSCLC; T-47D breast; NCI-H23 lung.
Holding throughout (assay): growth of human tumour cells (NCI), 48 h

Take `ClC1=C(Cl)C(Cl)=C(Cl)C1=C/C=C/c1ccccc1`: the GI50 is 0.319 µM with HT29 colon; 0.344 µM in the assay with MDA-MB-231 breast; 0.266 µM in the assay with OVCAR-8 ovarian; 0.329 µM with HL-60(TB) leukemia; 0.302 µM in the assay on MDA-MB-435; 0.138 µM in the assay on SR leukemia. Besides, the GI50 in the assay on PC-3 prostate was 0.276 µM; in the assay on A549 NSCLC it was 0.339 µM; in the assay on T-47D breast, 0.153 µM; in the assay with NCI-H23 lung, 0.257 µM. Also, the TGI in the assay with HT29 colon was 1.16 µM; in the assay on MDA-MB-231 breast it was > 100 µM; in the assay with OVCAR-8 ovarian, 1.92 µM; in the assay on MDA-MB-435 it was 0.977 µM; in the assay with PC-3 prostate it was 2.65 µM; with A549 NSCLC, 1.24 µM. For the same compound, the figures for the TGI with T-47D breast and in the assay with NCI-H23 lung were 0.631 µM and 1.14 µM, respectively.
Regarding `Cc1ccc(NC(=O)NC(=O)c2ccc([N+](=O)[O-])cc2[N+](=O)[O-])cc1Oc1ncc(Cl)cn1`, the TGI turned out to be 2.57 µM in the assay on HT29 colon; 24.2 µM in the assay on MDA-MB-231 breast; 6.7 µM with OVCAR-8 ovarian; 0.584 µM in the assay on HL-60(TB) leukemia; 0.542 µM in the assay on MDA-MB-435; 16.9 µM with SR leukemia. Further, the TGI is 12.2 µM in the assay on PC-3 prostate, > 40.2 µM with A549 NSCLC, 40.6 µM with T-47D breast and 9.39 µM in the assay on NCI-H23 lung.
On to `CCCCCCCCCCCCCCCCCC1=NCCN1CS(=O)(=O)O`, for which the GI50 in the assay with HT29 colon is 4.44 µM; in the assay with MDA-MB-231 breast, 9.34 µM; with OVCAR-8 ovarian it was 20.4 µM; in the assay with HL-60(TB) leukemia, 14.3 µM; in the assay with MDA-MB-435, 2.84 µM; in the assay with SR leukemia, 7.85 µM. The GI50 in the assay with PC-3 prostate is 11.4 µM; in the assay with A549 NSCLC, 12.5 µM; in the assay with T-47D breast it was 20 µM; in the assay with NCI-H23 lung, 15.4 µM. For the same compound, the TGI is 19.9 µM in the assay on HT29 colon; 23.7 µM with MDA-MB-231 breast; 48.9 µM in the assay on OVCAR-8 ovarian; 39.9 µM with HL-60(TB) leukemia; 9.82 µM in the assay with MDA-MB-435; > 100 µM in the assay with SR leukemia. In addition, the TGI in the assay on PC-3 prostate was 26.1 µM; in the assay on A549 NSCLC, 31.2 µM; in the assay on T-47D breast, 43.1 µM; in the assay on NCI-H23 lung, 33.4 µM.
As to `COc1ccccc1-n1c(-c2cc(O)ccc2C)cn2c3c(=O)[nH]c(=O)n(C)c3nc12`, the GI50 with HT29 colon is 1.62 µM; in the assay with MDA-MB-231 breast, 3.06 µM; in the assay on OVCAR-8 ovarian it was 10.9 µM; in the assay with HL-60(TB) leukemia it was > 100 µM; in the assay with MDA-MB-435, > 100 µM; in the assay with SR leukemia it was 66 µM. The GI50 in the assay with PC-3 prostate was > 100 µM; in the assay on A549 NSCLC it was 17.4 µM; in the assay on T-47D breast it was 42.4 µM; in the assay with NCI-H23 lung, 60.9 µM. Besides, the TGI with HT29 colon is 8.12 µM; in the assay on MDA-MB-231 breast it was > 100 µM; with OVCAR-8 ovarian, > 100 µM; in the assay on HL-60(TB) leukemia, > 100 µM; in the assay with MDA-MB-435 it was > 100 µM; in the assay on SR leukemia, > 100 µM. The TGI in the assay on PC-3 prostate, in the assay on A549 NSCLC, with T-47D breast and in the assay with NCI-H23 lung was > 100 µM in each case.
In the case of `CC(C)[C@@]12C[C@@H](OC(=O)[C@H]3CO3)[C@@](C)(O1)[C@@H]1CC[C@@H](C)[C@H]1[C@@H]2OC(=O)/C=C/c1ccccc1`, the GI50 was 27.6 µM in the assay on HT29 colon; 12.9 µM in the assay on MDA-MB-231 breast; 0.434 µM in the assay on OVCAR-8 ovarian; 13.4 µM in the assay on HL-60(TB) leukemia; 20.6 µM with MDA-MB-435; 24.7 µM with SR leukemia. Besides, the GI50 in the assay on PC-3 prostate is 9.59 µM; in the assay on A549 NSCLC it was 16.7 µM; in the assay on T-47D breast, 8.11 µM; in the assay on NCI-H23 lung it was 19.7 µM. For the same compound, the TGI was > 100 µM with HT29 colon; 38.6 µM in the assay on MDA-MB-231 breast; > 52.4 µM in the assay with OVCAR-8 ovarian; 44.5 µM in the assay with HL-60(TB) leukemia; > 73.5 µM with MDA-MB-435; > 100 µM with SR leukemia. Moreover, the TGI with PC-3 prostate was > 88.1 µM; with A549 NSCLC, 54.6 µM; with T-47D breast it was > 49.9 µM; in the assay on NCI-H23 lung it was > 100 µM.
In the case of `CCCCCCCC/C=C/CCCCCCCCC1=NCCN1CCO`, the GI50 in the assay with HT29 colon is 2.16 µM; in the assay on MDA-MB-231 breast, 1.99 µM; in the assay with OVCAR-8 ovarian, 3.88 µM; in the assay with HL-60(TB) leukemia, 2.45 µM; in the assay on MDA-MB-435 it was 1.87 µM; in the assay with SR leukemia, 1.9 µM. The GI50 in the assay on PC-3 prostate is 2.61 µM; in the assay on A549 NSCLC, 2.67 µM; in the assay on T-47D breast it was 2.96 µM; in the assay on NCI-H23 lung, 10.9 µM. For the same compound, the TGI came out at 5.21 µM in the assay with HT29 colon; 4.19 µM with MDA-MB-231 breast; 21.7 µM in the assay with OVCAR-8 ovarian; 6.35 µM in the assay with HL-60(TB) leukemia; 3.91 µM with MDA-MB-435; 4.95 µM in the assay with SR leukemia. In addition, the TGI with PC-3 prostate worked out at 9.14 µM; in the assay with A549 NSCLC it was 7.41 µM; with T-47D breast, 9.96 µM; in the assay on NCI-H23 lung, 28.3 µM.
As for `CCN(CC)c1cc(/C=C/c2ccc(OC)c(OC)c2)nc2cc(F)c(F)cc12`, the GI50 was 2.3 µM with MDA-MB-231 breast; 5.54 µM in the assay with OVCAR-8 ovarian; 12.2 µM in the assay on HL-60(TB) leukemia; > 100 µM in the assay on MDA-MB-435; 3.15 µM with SR leukemia; > 100 µM in the assay with PC-3 prostate. Besides, the GI50 in the assay on A549 NSCLC is 30 µM; with T-47D breast, 3.38 µM; in the assay with NCI-H23 lung it was 4.06 µM. For the same compound, the TGI was 7.47 µM in the assay on MDA-MB-231 breast; 80.8 µM in the assay on OVCAR-8 ovarian; 31.3 µM in the assay with HL-60(TB) leukemia; > 100 µM in the assay with MDA-MB-435; 12.3 µM in the assay on SR leukemia; > 100 µM with PC-3 prostate. In addition, the TGI in the assay on A549 NSCLC was > 100 µM; in the assay on T-47D breast, 18.4 µM; in the assay on NCI-H23 lung, 14 µM.
Turning to `CN1CCCNc2c(c(=O)c2=O)NCCCN(C)CCCNc2c(c(=O)c2=O)NCCCN(C)CCCNc2c(c(=O)c2=O)NCCCN(C)CCCNc2c(c(=O)c2=O)NCCCN(C)CCCNc2c(c(=O)c2=O)NCCCN(C)CCCNc2c(c(=O)c2=O)NCCCN(C)CCCNc2c(c(=O)c2=O)NCCC1`, the GI50 was 9.87 µM in the assay on HT29 colon; 4.42 µM in the assay on MDA-MB-231 breast; 2.48 µM in the assay on OVCAR-8 ovarian; 5.82 µM in the assay with HL-60(TB) leukemia; 2.68 µM in the assay with MDA-MB-435; 12.1 µM in the assay on SR leukemia. Further, the GI50 in the assay on PC-3 prostate is 7.02 µM; with A549 NSCLC it was 6.05 µM; in the assay on T-47D breast, 2.06 µM. The TGI with HT29 colon was > 50 µM; in the assay with MDA-MB-231 breast, 19.1 µM; with OVCAR-8 ovarian it was 46.8 µM; in the assay on HL-60(TB) leukemia it was 32.4 µM; with MDA-MB-435, 11.5 µM; in the assay with SR leukemia it was > 50 µM. Moreover, the TGI in the assay with PC-3 prostate is 22.2 µM; with A549 NSCLC it was > 50 µM; in the assay with T-47D breast, 7.74 µM.
